Biological target: human VR1 (Homo sapiens, UniProt Q8NER1)
Details: 50 μM capsazepine; HEK-293 clones expressing hVR1; any concentration of capsaicin

Sequence of human VR1 (Q8NER1 whole entry): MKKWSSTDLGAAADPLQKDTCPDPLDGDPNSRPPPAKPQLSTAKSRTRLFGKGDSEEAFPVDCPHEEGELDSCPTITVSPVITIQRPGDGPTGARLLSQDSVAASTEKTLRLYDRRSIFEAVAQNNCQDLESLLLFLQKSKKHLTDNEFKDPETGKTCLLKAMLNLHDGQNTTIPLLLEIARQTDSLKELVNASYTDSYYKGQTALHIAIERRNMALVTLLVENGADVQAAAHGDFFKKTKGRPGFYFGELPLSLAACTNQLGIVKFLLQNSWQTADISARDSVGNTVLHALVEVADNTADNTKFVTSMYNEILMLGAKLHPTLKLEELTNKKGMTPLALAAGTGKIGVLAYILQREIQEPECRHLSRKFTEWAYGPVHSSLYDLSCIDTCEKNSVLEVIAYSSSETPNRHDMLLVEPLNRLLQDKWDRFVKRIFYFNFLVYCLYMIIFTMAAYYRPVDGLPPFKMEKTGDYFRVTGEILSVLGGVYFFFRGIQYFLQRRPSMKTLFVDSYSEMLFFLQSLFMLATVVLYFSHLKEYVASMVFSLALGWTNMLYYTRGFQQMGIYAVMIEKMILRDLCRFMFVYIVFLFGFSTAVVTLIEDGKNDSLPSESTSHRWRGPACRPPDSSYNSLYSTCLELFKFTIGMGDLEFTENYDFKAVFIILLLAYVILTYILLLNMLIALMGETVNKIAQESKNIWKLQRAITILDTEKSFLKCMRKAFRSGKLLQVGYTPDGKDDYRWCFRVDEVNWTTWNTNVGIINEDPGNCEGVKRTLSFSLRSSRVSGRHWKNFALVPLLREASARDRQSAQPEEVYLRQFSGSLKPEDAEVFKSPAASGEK

Oc1cc2c(cc1O)CN(C(=S)NCCc1ccc(Cl)cc1)CCC2 [capsazepine]
response to capsaicin in the presence of capsazepine: failed to respond to any concentration of capsaicin
